From article PMC5797802, “The A2B Adenosine Receptor Modulates the Epithelial– Mesenchymal Transition through the Balance of cAMP/PKA and MAPK/ERK Pathway Activation in Human Epithelial Lung Cells” (Frontiers in Pharmacology, 2018)

How the values were obtained:
[1] = molecular target: T1, A2B adenosine receptor (A2BAR) (Homo sapiens, UniProt P29275); assay: agonist-induced cAMP production (AlphaLISA) in A549 cells with endogenous receptor; effect reversed by MRS […]; assay type: cell-based
T1 construct: gene ADORA2B
T1 sequence (P29275 1-332): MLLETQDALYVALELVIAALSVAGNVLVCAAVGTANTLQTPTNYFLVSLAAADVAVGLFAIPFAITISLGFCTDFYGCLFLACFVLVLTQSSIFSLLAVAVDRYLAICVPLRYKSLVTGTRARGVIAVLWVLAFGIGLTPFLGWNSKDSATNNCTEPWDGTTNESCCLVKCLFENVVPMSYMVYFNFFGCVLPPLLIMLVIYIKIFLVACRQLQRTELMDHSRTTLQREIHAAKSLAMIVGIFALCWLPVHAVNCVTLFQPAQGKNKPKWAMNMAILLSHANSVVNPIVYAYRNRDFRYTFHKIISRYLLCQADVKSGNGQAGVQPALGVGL

[2] = molecular target: T1, A2B adenosine receptor (A2BAR); assay: reversal at […] of BAY […]-6583-induced cAMP and ERK1/[…] phosphorylation in A549 cells; assay type: cell-based

SMILES | EC50 [1] [nM] | reversal at 1 μM of BAY 60-6583-induced cAMP and ERK1/2 phosphorylation in A549 [2]
N#Cc1c(N)nc(SCC(N)=O)c(C#N)c1-c1ccc(OCC2CC2)cc1 [BAY 60-6583, 2-[6-amino-3,5-dicyano-4-[4-(cyclopropylmethoxy)phenyl]pyridin-2-ylsulfanyl] acetamide] | 17.2 ± 2.5 | 
CCCn1c(=O)c2[nH]c(-c3ccc(OCC(=O)Nc4ccc(C(C)=O)cc4)cc3)nc2n(CCC)c1=O [MRS1706, N-(4-acetylphenyl)-2-[4-(2,3,6,7-tetrahydro-2,6-dioxo-1,3-dipropyl-1H-purin-8-yl)phenoxy]-acetamide] |  | The effects evoked by A2BAR stimulation were almost completely reversed by the A2BAR inverse agonist MRS1706
